Source: patent US20210244712A1, “METHODS FOR TREATING PATIENTS WITH CANCER HAVING DEFECTS IN CYCLIN D REGULATION” (NysnoBio Ireland DAC, priority 2018, published 2021)

Tests used:
OVCAR-3 = experiment: Cell proliferation assay; format: cell-based; details: Homo sapiens; Ovarian OVCAR-3; loss of p16 (mutant p53)
Cyclin D = Cyclin D degradation in cell lines; format: cell-based; details: text summary of Table 7
HCT-116 = experiment: Senescence quantification (SA-βGal), Example 6A; format: cell-based; details: Compound 42 250 nM, Palbociclib 1 μM, compared to control (DMSO)
Description: Day 1: 96 well plate was seeded with 4000 cells/well and incubated for 24 hours at 37° C. […]
Day 6: Senescence cells histochemical Staining Kit (Sigma) was used. The growth medium form the cells were aspirated then washed twice with fresh […]. […] 100 μL filtered Fixation Buffer was added per well and the plate was incubated for 6-7 minutes at room temperature. Then, the cells were rinsed 3 times with PBS. 50 μL of the Staining Mixture was added per well and incubated at 37° C. overnight without CO2 (staining is pH dependent). After staining, the Staining Mixture was removed, PBS and Hoechst dye (1 μg/mL) were added. Ten images were taken with Epifluorescence Microscope using the blue filter and 10 images were taken in the brightfield. The images were used to count the total cell number—the positive blue cells were counted in the bright field. The percentage of cells expressing β-galactosidase was calculated.
Method 1: Mammalian β-Galactosidase Assay Kit (Thermo Scientific) was used. […] The cells were washed once with PBS. 100 μL of the β-Galactosidase Assay Reagent was added to each well and the plate was covered and incubated for 30 minutes at 37° C. without CO2. The absorbance was measured at 405 nm. […]
Method 2: Assay of a portion of the lysate. […] 25 μL of lysate was removed and use it for Protein Quantification (BCA). […]
Senescence was quantified according to Example 4. […]

pRb = experiment: Western blot of cellular biomarker pRb; format: cell-based
Description: (§1) Various cancer cells lines were treated with Compound 42 or palbociclib (control) to measure the expression of cyclin D, cyclin E, pRb, and Rb.
(§2) Day 1: 6 well plate was seeded with 3×10^5 cells/well with a final volume of 3 mL and incubated for 24 hours at 37° C.
(§3) Day 2: The media was removed and Compound 42 (see below for dose) or palbociclib (1 μM) as positive control were added to the wells the desired concentration in cell culture media, giving a final volume of 3 mL per well. The plate was incubated for 24 hours at 37° C. (or desired period).
(§4) Day 3: The media was removed from wells and washed ×3 with PBS. 500 μl of trypsin was added to the wells and incubate until cells detach. 500 μl media was added to neutralise trypsin, transferred to 2 ml Eppendorfs, and centrifuged (1500 RPM for 5 minutes). While spinning, the wells were washed with 1 mL PBS to collect any remaining cells. This wash was used to centrifuged cell pellet. After the first spin, the supernatant was discarded and the pellet was washed with PBS collected from the previous step. The centrifugation step was repeated and the supernatant was discarded and the pellet wash again with fresh PBS. The centrifugation and wash with PBS was repeated one more time. RIPA cell lysate buffer was prepared and Protease Inhibitor Cocktail was included. The supernatant was discarded and […] RIPA cell lysate buffer was added to the pellet. The protein concentration was determined using the BCA assay kit.
(§5) Day 4: Western blot analysis was performed. 4-12% Bis-Tris gel and MOPS running buffer was used. The running buffer was made to sufficient volume of running buffer to 1× concentration. 20 μg protein (v/v loading & reducing buffer) of each sample was loaded into wells. Some proteins may require more, or less, protein loaded. The gel was ran at standard settings 200 V for 45 minutes. […] The membrane was blocked using 5% non-fat powdered milk* made up in 1×TBS containing 0.1% Tween (TBS-T and incubated for 1 hr with gentle rocking. The observation from the Western blot analysis is quantified in FIGS. 2-7D. […]

cyclin E1 = experiment: Western blot of cellular biomarker cyclin E1; format: cell-based; details: 250 nM Compound 42, 24 hours, compared to palbociclib 1 μM
Description: as §1, §2, §3, §4, §5

[1] = HCT-116 xenograft model, body weight and adverse events; format: in vivo; details: for weight loss or adverse events: Groups 2-6 of Table 8, IP daily for 20 days; for body weight: throughout the duration of the study, Compound 42 1 and 5 mg/kg, Compound F 10 or 25 mg/kg
Description: Treatments were initiated when turner volume reached 100-150 mm^3. Treatments started on Day 5. Test compounds were administered intraperitoneally (II′) in 10 mg/mL solution comprising 10% N,N-dimethyl acetamide, 15% macrogol 15 hydroxy stearate, polyethylene glycol-15-hydroxystearate, and 75% aqueous hydroxypropyl-beta-cyclodextrin.
Observation and data collection: After tumor cells inoculation, the animals were checked daily for morbidity and mortality. At the time of routine monitoring, the animals were checked for any adverse effects of tumor growth and treatments on normal behavior such as mobility, visual estimation of food and water consumption, body weight gain/loss, eye/hair matting and any other abnormal effects, Death and observed clinical signs were recorded, per […] IACUC. Tumor volumes were measured every 3-4 days in two dimensions using an electronic caliper, sad the volume data are expressed in, mm3 using the formula: V=0.5 a×b^2 where a and b are fee long and short diameters of the tumor, respectively. Dosing and tumor volume measurement procedures were conducted in a Laminar Flow Cabinet according to Altogen Labs IACUC regulations.
Body weight loss daring fee study: Sacrifice fee mouse when one measurement of body weight loss (BWL)>20% (only for control animals). Animal research associated wife this study was conducted under Altogen Labs IACUC regulatory space. Altogen Labs IACUC guidelines were followed in case of BWL and any other conditions.

| Compound | IC50 (OVCAR-3) | degrading Cyclin D, overall statement (Cyclin D) | senescence (SA-βGal levels) (HCT-116) | pRb expression (pRb; A2780, 250 nM Compound 42, 24 hours, compared to palbociclib 1 μM) | pRb expression (pRb; HT116, with increasing concentration) | pRb expression (pRb; OAW42, 250 nM Compound 42, 24 hours, compared to palbociclib 1 μM) | cyclin E1 expression (cyclin E1; A2780) | cyclin E1 expression (cyclin E1; ES-2) | cyclin E1 expression (cyclin E1; OAW42) | weight loss or adverse events [1] | body weight [1] |
| --- | --- | --- | --- | --- | --- | --- | --- | --- | --- | --- | --- |
| Cc1ccccc1C(=O)Nc1nc(NC(=O)c2ccccc2C)n(-c2ccc(OC(F)(F)F)cc2)n1 [Compound 42, N,N′-(1-(4-(trifluoromethoxy)phenyl)-1H-1,2,4-triazole-3,5-diyl)bis(2-methylbenzamide)] | 140 nM | effective in degrading Cyclin D | induced senescence | some reduction of pRb expression | reduction | reduction of pRb expression | reduction of cyclin E1 expressions | reduction of cyclin E1 expressions | some reduction of cyclin E1 expression | No weight loss or any adverse events | maintained body weight |
| Cc1ccccc1C(=O)Nc1nc(NC(=O)c2ccccc2C)n(-c2ccccc2)n1 [Compound F, 2-methyl-N-[5-[(2-methylbenzoyl)amino]-1-phenyl-1,2,4-triazol-3-yl]benzamide] | – | – | – | – | – | – | – | – | – | No weight loss or any adverse events | maintained body weight |
